From patent US10092537B2, “Use for PAI-1 inhibitor” (RENASCIENCE CO., LTD., priority 2013, dated 2018) come the findings set out here.

Assay [1] addresses T1, human PAI-1 (Homo sapiens, UniProt P05121). Briefly: Measurement of PAI-1 inhibitory activity of compound group 2 (t-PA, S-2288 chromogenic substrate). The note with it: PAI-1 activity of the system without compound after 30 minutes taken as 100%.
Procedure: Subsequently, human-derived tissue plasminogen activator (t-PA) (manufactured by American Diagnostica, Inc. (USA); the same applies hereinafter) adjusted to 0.3 pmol/μL was added thereto, and the mixture was further incubated at 37° C. for 15 minutes.
Assay [2] concerns the target T1, human PAI-1. The assay is described as follows: Measurement of PAI-1 inhibitory activity of compound group 1 (t-PA, S-2288 chromogenic substrate). The note with it: read-out: PAI-1 activity %.
Procedure: Subsequently, human-derived tissue plasminogen activator (t-PA) (manufactured by American Diagnostica, Inc. (USA); the same applies hereinafter) adjusted to 0.35 pmol/μL was added thereto, and the mixture was further incubated at 37° C. for 15 minutes.
Assay [3] addresses T1, human PAI-1. Briefly: Measurement of PAI-1 inhibitory activity of compound group 1 (t-PA, Spectrozyme t-PA chromogenic substrate). To be noted: read-out: PAI-1 activity %.
Procedure: Subsequently, human-derived tissue plasminogen activator (t-PA) (manufactured by American Diagnostica, Inc. (USA); the same applies hereinafter) adjusted to 0.05 pmol/μL was added thereto, and the mixture was further incubated at 37° C. for 60 minutes. Then, 0.25 mM of Spectrozyme t-PA synthetic substrate (manufactured by American Diagnostica, Inc. (USA); the same applies hereinafter), which is a chromogenic substrate, was added. The final mixture contained 50 mM Tris-HCl (pH 8), 150 mM NaCl, 1% DMSO, 0.1% PEG-6000, 0.2 mM CHAPS, 5 nM PAI-1, 2 nM t-PA, 0.2 mM Spectrozyme t-PA synthetic substrate, and each compound (10 μM or 2.5 μM).
Free radical p-nitroaniline removed from the chromogenic substrate (Spectrozyme t-PA) by t-PA action was measured using a spectrophotometer at an absorbance of 405 nm at 20-minute intervals, for 120 minutes.
In assay [4] the target is T1, human PAI-1. The assay is described as follows: Measurement of PAI-1 inhibitory activity of compound group 3 (t-PA, S-2288 chromogenic substrate; Table 4). The note with it: compound concentration 20 μM.
Procedure: Subsequently, tissue plasminogen activator (t-PA) (manufactured by American Diagnostica, Inc. (USA); the same applies hereinafter) adjusted to 0.3 pmol/μL was added thereto, and further incubated at 37° C. for 15 minutes.

T1 sequence (P05121 24-402): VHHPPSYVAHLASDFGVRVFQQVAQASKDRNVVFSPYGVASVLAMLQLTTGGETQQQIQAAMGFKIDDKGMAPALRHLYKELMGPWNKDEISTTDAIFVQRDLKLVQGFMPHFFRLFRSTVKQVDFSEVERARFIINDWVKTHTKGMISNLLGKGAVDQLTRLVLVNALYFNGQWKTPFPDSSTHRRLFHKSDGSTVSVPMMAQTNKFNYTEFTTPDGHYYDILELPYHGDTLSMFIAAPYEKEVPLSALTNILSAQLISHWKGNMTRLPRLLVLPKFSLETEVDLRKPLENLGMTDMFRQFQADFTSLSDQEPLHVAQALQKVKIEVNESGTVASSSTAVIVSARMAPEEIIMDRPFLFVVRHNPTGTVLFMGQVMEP

Regarding “5-chloro-2-({[4-(pyrrolidin-1-yl)phenyl]carbonyl}amino)benzoic acid hydrochloride [Example 83]”, the PAI-1 activity % on human PAI-1 [1] (compound 20 μM) came to 99.8%; on human PAI-1 [1] (compound 50 μM) it was 77.8%.
On to `O=C(O)c1cc(Cl)ccc1NC(=O)C1CCCN(C(=O)Cc2cccc(-c3ccoc3)c2)C1` (stereo not drawn) [Example 12, 5-chloro-2-{[(1-{[3-(furan-3-yl)phenyl]acetyl}piperidin-3-yl)carbonyl]amino}benzoic acid], for which, at human PAI-1 [2], the activity at 20 µM was 57.7% and the activity at 50 µM was 15.7%.
For `O=C(Cc1cccc(-c2ccoc2)c1)Nc1ccc(Cl)cc1C(=O)O` [Example 3, 5-chloro-2-({[3-(furan-3-yl)phenyl]acetyl}amino)benzoic acid] the same measures were 63.7% and 19.6%.
On to `O=C(O)c1cc(Cl)ccc1NC(=O)[C@@H]1CCCN1C(=O)Cc1cccc(-c2ccoc2)c1` [Example 9, 5-chloro-2-[(1-{[3-(furan-3-yl)phenyl]acetyl}-L-prolyl)amino]benzoic acid], for which, on human PAI-1 [2], the activity at 20 µM came to 98.1% and the activity at 50 µM came out at 53.2%.
Turning to `O=C(Nc1ccc(Cl)cc1C(=O)O)c1ccc(-c2cccs2)cc1` [Example 7, 5-chloro-2-({[4-(thiophen-2-yl)phenyl]carbonyl}amino)benzoic acid], at human PAI-1 [2], the activity at 20 µM stood at 54.2% and the activity at 50 µM was found to be 7.4%. Moreover, at human PAI-1 [3], the activity at 2.5 µM was determined as 99.8% and the activity at 10 µM worked out at 0.4%.
For `O=C(O)c1cc(Cl)ccc1NC(=O)[C@@H]1CCCN1C(=O)c1cccc(-c2ccoc2)c1` [Example 10, 5-chloro-2-[(-{[3-(furan-3-yl)phenyl]carbonyl}-L-prolyl)amino]benzoic acid], on human PAI-1 [2], the activity at 20 µM stood at 73% and the activity at 50 µM came out at 38.3%.
For the compound `Cn1cc(C(=O)C(=O)Nc2ccc(Cl)cc2C(=O)O)c2cc(-c3ccoc3)ccc21` [Example 14, 5-chloro-2-({[5-(furan-3-yl)-1-methyl-1H-indol-3-yl](oxo)acetyl}amino)benzoic acid], on human PAI-1 [2], the activity at 20 µM was determined as 22.1% and the activity at 50 µM came to 12.9%. For the same compound, on human PAI-1 [3], the activity at 2.5 µM amounted to 87.4% and the activity at 10 µM is 4.3%.
On to `Cc1sc(NC(=O)c2cccc(-c3ccoc3)c2)c(C(=O)O)c1-c1ccccc1` [Example 5, 2-({[3-(furan-3-yl)phenyl]carbonyl}amino)-5-methyl-4-phenylthiophene-3-carboxylic acid], for which, at human PAI-1 [2], the activity at 20 µM was 14.7% and the activity at 50 µM turned out to be 6.1%. Moreover, at human PAI-1 [3], the activity at 2.5 µM turned out to be 46.4% and the activity at 10 µM was 0.3%.
`O=C(O)c1cc(Cl)ccc1NC(=O)c1ccccc1-c1ccccc1` [Example 6, 2-[(biphenyl-2-ylcarbonyl)amino]-5-chlorobenzoic acid]: at human PAI-1 [2], the activity at 20 µM was found to be 51.4% and the activity at 50 µM is 22.2%.
For `O=C(CCCNC(=O)c1cccc(-c2ccoc2)c1)Nc1ccc(Cl)cc1C(=O)O` [Example 1, 5-chloro-2-{[4-({[3-(furan-3-yl)phenyl]carbonyl}amino)butanoyl]amino}benzoic acid] the same measures were 95.5% and 48.9%.
In the case of `CC(C)(C)c1ccc(C(=O)Nc2ccc(Cl)cc2C(=O)O)cc1` [Known compound (1), 2-{[(4-tert-butylphenyl)carbonyl]amino}-5-chlorobenzoic acid, reference compound], at human PAI-1 [2], the activity at 20 µM is 44% and the activity at 50 µM was 11%. In addition, at human PAI-1 [3], the activity at 2.5 µM was 100% and the activity at 10 µM is 12.7%.
For `O=C(Nc1ccc(Cl)cc1C(=O)O)c1ccc(-c2ccccc2)cc1` [Known compound (2), 2-[(biphenyl-4-ylcarbonyl)amino]-5-chlorobenzoic acid, reference compound] the same measures were 41.8%, 8%, 70.7% and 0.2%.
Take “5-chloro-2-({[4-(diphenylmethyl)piperazin-1-yl]carbonyl}amino)benzoic acid hydrochloride [Example 75]”: the PAI-1 activity % worked out at 91.3% at human PAI-1 [1] (compound 20 μM), 13.3% at human PAI-1 [1] (compound 50 μM) and 46.1% at human PAI-1 [4].
For the compound `O=C(Cc1ccc(-c2ccccc2)cc1)Nc1ccc(Cl)cc1C(=O)O` [Example 70, 2-[(biphenyl-4-ylacetyl)amino]-5-chlorobenzoic acid], on human PAI-1 [3], the activity at 2.5 µM is 94.6% and the activity at 10 µM came to 4.4%.
For `Cc1cccc(-c2ccc(NC(=O)COc3cccc(-c4ccoc4)c3)c(C(=O)O)c2)c1` [Example 27, 4-({[3-(furan-3-yl)phenoxy]acetyl}amino)-3′-methylbiphenyl-3-carboxylic acid] the same measures were 69.1% and 0.7%.
For `O=C(CNC(c1ccccc1)c1ccccc1)Nc1ccc(Cl)cc1C(=O)O` [Example 73, 5-chloro-2-{[N-(diphenylmethyl)glycyl]amino}benzoic acid] the same measures were 82.2% and 31.2%.
On to `O=C(COc1ccc(-c2ccco2)cc1)Nc1ccc(Cl)cc1C(=O)O` [Example 54, 5-chloro-2-({[4-(furan-2-yl)phenoxy]acetyl}amino)benzoic acid], for which, on human PAI-1 [3], the activity at 2.5 µM was 94.4% and the activity at 10 µM was 15.5%.
For `O=C(/C=C(/Cl)C1CCCCC1)Nc1ccc(Cl)cc1C(=O)O` [Example 91, 5-chloro-2-{[(2E)-3-chloro-3-cyclohexylprop-2-enoyl]amino}benzoic acid] the same measures were 96.9% and 16.7%.
On to `O=C(Nc1ccc(Cl)cc1C(=O)O)c1ccc(OCC23CC4CC(CC(C4)C2)C3)cc1` [Example 52, 2-({[4-(adamantan-1-ylmethoxy)phenyl]carbonyl}amino)-5-chlorobenzoic acid], for which, at human PAI-1 [3], the activity at 2.5 µM came to 7.2% and the activity at 10 µM amounted to 5.1%.
Turning to `O=C(O)c1cc(Cl)ccc1NC(=O)c1cccc2c1Cc1ccccc1-2` [Example 38, 5-chloro-2-[(9H-fluoren-1-ylcarbonyl)amino]benzoic acid], on human PAI-1 [3], the activity at 2.5 µM was determined as 94.8% and the activity at 10 µM was determined as 2.5%.
Take `O=C(Nc1ccc(Cl)cc1C(=O)O)C(=O)c1c[nH]c2ccc(OCc3ccccc3)cc12` [Example 57, 2-({[5-(benzyloxy)-1H-indol-3-yl](oxo)acetyl}amino)-5-chlorobenzoic acid]: at human PAI-1 [3], the activity at 2.5 µM was found to be 38.6% and the activity at 10 µM came out at 0.2%.
`O=C(COc1cccc(C23CC4CC(CC(C4)C2)C3)c1)Nc1ccc(Cl)cc1C(=O)O` [Example 30, 2-({[3-(adamantan-1-yl)phenoxy]acetyl}amino)-5-chlorobenzoic acid]: at human PAI-1 [3], the activity at 2.5 µM was 19.3% and the activity at 10 µM turned out to be 1.3%.
For `O=C(COc1ccc(-c2ccoc2)cc1)Nc1ccc(Cl)cc1C(=O)O` [Example 29, 5-chloro-2-({[4-(furan-3-yl)phenoxy]acetyl}amino)benzoic acid] the same measures were 93.2% and 24.3%.
For `O=C(Nc1ccc(C#CC2CCCCC2)cc1C(=O)O)c1ccc(C2CCCCC2)cc1` [Example 92, 5-(cyclohexylethynyl)-2-{[(4-cyclohexylphenyl)carbonyl]amino}benzoic acid] the same measures were 0% and 0.4%.
For `O=C(COc1cccc(-c2ccccc2)c1)Nc1ccc(Cl)cc1C(=O)O` [Example 20, 2-{[(biphenyl-3-yloxy)acetyl]amino}-5-chlorobenzoic acid], on human PAI-1 [3], the activity at 2.5 µM stood at 55.7% and the activity at 10 µM was found to be 1.9%.
For `O=C(Nc1ccc(Cl)cc1C(=O)O)c1ccc(OCc2ccc3ccccc3n2)cc1` [Example 100, sodium 5-chloro-2-({[4-(quinolin-2-ylmethoxy)phenyl]carbonyl}amino)benzoate] the same measures were 92.1% and 0.7%.
Take `O=C(Nc1ccc(Cl)cc1C(=O)O)c1cccc(C#CC2CCCCC2)c1` [Example 87, 5-chloro-2-({[3-(cyclohexylethynyl)phenyl]carbonyl}amino)benzoic acid]: on human PAI-1 [3], the activity at 2.5 µM was 20.5% and the activity at 10 µM was 1.2%.
`C#Cc1ccc(NC(=O)c2ccc(C3CCCCC3)cc2)c(C(=O)O)c1` [Example 95, 2-{[(4-cyclohexylphenyl)carbonyl]amino}-5-ethynylbenzoic acid]: on human PAI-1 [3], the activity at 2.5 µM came out at 80.5% and the activity at 10 µM amounted to 0.3%.
As to `O=C(Nc1ccc(Cl)cc1C(=O)O)c1ccc(C(=O)C23CC4CC(CC(C4)C2)C3)cc1` [Example 56, 2-({[4-(adamantan-1-ylcarbonyl)phenyl]carbonyl}amino)-5-chlorobenzoic acid], at human PAI-1 [3], the activity at 2.5 µM was found to be 75.8% and the activity at 10 µM was determined as 0.7%.
For `O=C(/C=C/c1cccc(C2=CCCCC2)c1)Nc1ccc(Cl)cc1C(=O)O` [Example 90, 5-chloro-2-({(2E)-3-[3-(cyclohex-1-en-1-yl)phenyl]prop-2-enoyl}amino)benzoic acid] the same measures were 65.3% and 0.1%.
For `O=C(COc1cccc(-c2ccco2)c1)Nc1ccc(Cl)cc1C(=O)O` [Example 53, 5-chloro-2-({[3-(furan-2-yl)phenoxy]acetyl}amino)benzoic acid] the same measures were 95.3% and 21.6%.
On to `O=C(O)c1cc(Cl)ccc1NC(=O)C1(c2cccc(-c3ccoc3)c2)CC1` [Example 35, 5-chloro-2-[({1-[3-(furan-3-yl)phenyl]cyclopropyl}carbonyl)amino]benzoic acid], for which, at human PAI-1 [3], the activity at 2.5 µM was 98.8% and the activity at 10 µM was 15.6%.
